In patent US20070191291A1, “Compound antibacterial drugs comprising n-acetyl-d-glucosamine” (priority 2003, published 2007):

System: E. coli
Experiment: Test Example 1: inducing E. coli CGC with N-acetyl-D-glucosamine and antibiotics in different ratios (K-B method, microscopy)
Assay type: cell-based

Q: What does the source list for CC(=O)N[C@@H]1[C@@H](O)[C@H](O)[C@@H](CO)O[C@H]1O [Compound (I), N-acetyl-D-glucosamine]?
A: CGC formation (Compound (I) 10 mg, aminoglycoside (kanamycin, gentamycin) 50 mg): − (if cell length was not greater than 50 μm and cell number was within the range from 0 to 4 in each visual field, it was deemed as CGC negative and was marked with “−”); CGC formation (Compound (I) 10 mg, aminoglycoside (kanamycin, gentamycin) 100 mg): + (If cell length was more than 50 μm and cell number was more than 5 in each visual field, it was deemed as CGC positive and was marked with “+”); CGC formation (Compound (I) 10 mg, aminoglycoside (kanamycin, gentamycin) 150 mg): + (If cell length was more than 50 μm and cell number was more than 5 in each visual field, it was deemed as CGC positive and was marked with “+”); CGC formation (Compound (I) 10 mg, aminoglycoside (kanamycin, gentamycin) 200 mg): + (If cell length was more than 50 μm and cell number was more than 5 in each visual field, it was deemed as CGC positive and was marked with “+”); CGC formation (Compound (I) 10 mg, aminoglycoside (kanamycin, gentamycin) 300 mg): + (If cell length was more than 50 μm and cell number was more than 5 in each visual field, it was deemed as CGC positive and was marked with “+”); CGC formation (Compound (I) 10 mg, aminoglycoside (kanamycin, gentamycin) 400 mg): + (If cell length was more than 50 μm and cell number was more than 5 in each visual field, it was deemed as CGC positive and was marked with “+”); CGC formation (Compound (I) 10 mg, aminoglycoside (kanamycin, gentamycin) 500 mg): + (If cell length was more than 50 μm and cell number was more than 5 in each visual field, it was deemed as CGC positive and was marked with “+”); CGC formation (Compound (I) 10 mg, macrolide (spiramycin) 300 mg): − (if cell length was not greater than 50 μm and cell number was within the range from 0 to 4 in each visual field, it was deemed as CGC negative and was marked with “−”); CGC formation (Compound (I) 10 mg, macrolide (spiramycin) 500 mg): + (If cell length was more than 50 μm and cell number was more than 5 in each visual field, it was deemed as CGC positive and was marked with “+”); CGC formation (Compound (I) 10 mg, macrolide (spiramycin) 700 mg): + (If cell length was more than 50 μm and cell number was more than 5 in each visual field, it was deemed as CGC positive and was marked with “+”); CGC formation (Compound (I) 10 mg, macrolide (spiramycin) 900 mg): + (If cell length was more than 50 μm and cell number was more than 5 in each visual field, it was deemed as CGC positive and was marked with “+”); CGC formation (Compound (I) 10 mg, macrolide (spiramycin) 1100 mg): + (If cell length was more than 50 μm and cell number was more than 5 in each visual field, it was deemed as CGC positive and was marked with “+”); CGC formation (Compound (I) 10 mg, macrolide (spiramycin) 1300 mg): + (If cell length was more than 50 μm and cell number was more than 5 in each visual field, it was deemed as CGC positive and was marked with “+”); CGC formation (Compound (I) 10 mg, macrolide (spiramycin) 1500 mg): + (If cell length was more than 50 μm and cell number was more than 5 in each visual field, it was deemed as CGC positive and was marked with “+”); CGC formation (Compound (I) 50 mg, aminoglycoside (kanamycin, gentamycin) 50 mg): − (if cell length was not greater than 50 μm and cell number was within the range from 0 to 4 in each visual field, it was deemed as CGC negative and was marked with “−”); CGC formation (Compound (I) 50 mg, aminoglycoside (kanamycin, gentamycin) 100 mg): − (if cell length was not greater than 50 μm and cell number was within the range from 0 to 4 in each visual field, it was deemed as CGC negative and was marked with “−”); CGC formation (Compound (I) 50 mg, aminoglycoside (kanamycin, gentamycin) 150 mg): + (If cell length was more than 50 μm and cell number was more than 5 in each visual field, it was deemed as CGC positive and was marked with “+”); CGC formation (Compound (I) 50 mg, aminoglycoside (kanamycin, gentamycin) 200 mg): + (If cell length was more than 50 μm and cell number was more than 5 in each visual field, it was deemed as CGC positive and was marked with “+”); CGC formation (Compound (I) 50 mg, aminoglycoside (kanamycin, gentamycin) 300 mg): + (If cell length was more than 50 μm and cell number was more than 5 in each visual field, it was deemed as CGC positive and was marked with “+”); CGC formation (Compound (I) 50 mg, aminoglycoside (kanamycin, gentamycin) 400 mg): + (If cell length was more than 50 μm and cell number was more than 5 in each visual field, it was deemed as CGC positive and was marked with “+”); CGC formation (Compound (I) 50 mg, aminoglycoside (kanamycin, gentamycin) 500 mg): + (If cell length was more than 50 μm and cell number was more than 5 in each visual field, it was deemed as CGC positive and was marked with “+”); CGC formation (Compound (I) 50 mg, macrolide (spiramycin) 300 mg): − (if cell length was not greater than 50 μm and cell number was within the range from 0 to 4 in each visual field, it was deemed as CGC negative and was marked with “−”); CGC formation (Compound (I) 50 mg, macrolide (spiramycin) 500 mg): − (if cell length was not greater than 50 μm and cell number was within the range from 0 to 4 in each visual field, it was deemed as CGC negative and was marked with “−”); CGC formation (Compound (I) 50 mg, macrolide (spiramycin) 700 mg): + (If cell length was more than 50 μm and cell number was more than 5 in each visual field, it was deemed as CGC positive and was marked with “+”); CGC formation (Compound (I) 50 mg, macrolide (spiramycin) 900 mg): + (If cell length was more than 50 μm and cell number was more than 5 in each visual field, it was deemed as CGC positive and was marked with “+”); CGC formation (Compound (I) 50 mg, macrolide (spiramycin) 1100 mg): + (If cell length was more than 50 μm and cell number was more than 5 in each visual field, it was deemed as CGC positive and was marked with “+”); CGC formation (Compound (I) 50 mg, macrolide (spiramycin) 1300 mg): + (If cell length was more than 50 μm and cell number was more than 5 in each visual field, it was deemed as CGC positive and was marked with “+”); CGC formation (Compound (I) 50 mg, macrolide (spiramycin) 1500 mg): + (If cell length was more than 50 μm and cell number was more than 5 in each visual field, it was deemed as CGC positive and was marked with “+”); CGC formation (Compound (I) 100 mg, aminoglycoside (kanamycin, gentamycin) 50 mg): − (if cell length was not greater than 50 μm and cell number was within the range from 0 to 4 in each visual field, it was deemed as CGC negative and was marked with “−”); CGC formation (Compound (I) 100 mg, aminoglycoside (kanamycin, gentamycin) 100 mg): − (if cell length was not greater than 50 μm and cell number was within the range from 0 to 4 in each visual field, it was deemed as CGC negative and was marked with “−”); CGC formation (Compound (I) 100 mg, aminoglycoside (kanamycin, gentamycin) 150 mg): − (if cell length was not greater than 50 μm and cell number was within the range from 0 to 4 in each visual field, it was deemed as CGC negative and was marked with “−”); CGC formation (Compound (I) 100 mg, aminoglycoside (kanamycin, gentamycin) 200 mg): + (If cell length was more than 50 μm and cell number was more than 5 in each visual field, it was deemed as CGC positive and was marked with “+”); CGC formation (Compound (I) 100 mg, aminoglycoside (kanamycin, gentamycin) 300 mg): + (If cell length was more than 50 μm and cell number was more than 5 in each visual field, it was deemed as CGC positive and was marked with “+”); CGC formation (Compound (I) 100 mg, aminoglycoside (kanamycin, gentamycin) 400 mg): + (If cell length was more than 50 μm and cell number was more than 5 in each visual field, it was deemed as CGC positive and was marked with “+”); CGC formation (Compound (I) 100 mg, aminoglycoside (kanamycin, gentamycin) 500 mg): + (If cell length was more than 50 μm and cell number was more than 5 in each visual field, it was deemed as CGC positive and was marked with “+”); CGC formation (Compound (I) 100 mg, macrolide (spiramycin) 300 mg): − (if cell length was not greater than 50 μm and cell number was within the range from 0 to 4 in each visual field, it was deemed as CGC negative and was marked with “−”); CGC formation (Compound (I) 100 mg, macrolide (spiramycin) 500 mg): − (if cell length was not greater than 50 μm and cell number was within the range from 0 to 4 in each visual field, it was deemed as CGC negative and was marked with “−”); CGC formation (Compound (I) 100 mg, macrolide (spiramycin) 700 mg): − (if cell length was not greater than 50 μm and cell number was within the range from 0 to 4 in each visual field, it was deemed as CGC negative and was marked with “−”); CGC formation (Compound (I) 100 mg, macrolide (spiramycin) 900 mg): + (If cell length was more than 50 μm and cell number was more than 5 in each visual field, it was deemed as CGC positive and was marked with “+”); CGC formation (Compound (I) 100 mg, macrolide (spiramycin) 1100 mg): + (If cell length was more than 50 μm and cell number was more than 5 in each visual field, it was deemed as CGC positive and was marked with “+”); CGC formation (Compound (I) 100 mg, macrolide (spiramycin) 1300 mg): + (If cell length was more than 50 μm and cell number was more than 5 in each visual field, it was deemed as CGC positive and was marked with “+”); CGC formation (Compound (I) 100 mg, macrolide (spiramycin) 1500 mg): + (If cell length was more than 50 μm and cell number was more than 5 in each visual field, it was deemed as CGC positive and was marked with “+”); CGC formation (Compound (I) 150 mg, aminoglycoside (kanamycin, gentamycin) 50 mg): − (if cell length was not greater than 50 μm and cell number was within the range from 0 to 4 in each visual field, it was deemed as CGC negative and was marked with “−”); CGC formation (Compound (I) 150 mg, aminoglycoside (kanamycin, gentamycin) 100 mg): − (if cell length was not greater than 50 μm and cell number was within the range from 0 to 4 in each visual field, it was deemed as CGC negative and was marked with “−”); CGC formation (Compound (I) 150 mg, aminoglycoside (kanamycin, gentamycin) 150 mg): − (if cell length was not greater than 50 μm and cell number was within the range from 0 to 4 in each visual field, it was deemed as CGC negative and was marked with “−”); CGC formation (Compound (I) 150 mg, aminoglycoside (kanamycin, gentamycin) 200 mg): − (if cell length was not greater than 50 μm and cell number was within the range from 0 to 4 in each visual field, it was deemed as CGC negative and was marked with “−”); CGC formation (Compound (I) 150 mg, aminoglycoside (kanamycin, gentamycin) 300 mg): + (If cell length was more than 50 μm and cell number was more than 5 in each visual field, it was deemed as CGC positive and was marked with “+”); CGC formation (Compound (I) 150 mg, aminoglycoside (kanamycin, gentamycin) 400 mg): + (If cell length was more than 50 μm and cell number was more than 5 in each visual field, it was deemed as CGC positive and was marked with “+”); CGC formation (Compound (I) 150 mg, aminoglycoside (kanamycin, gentamycin) 500 mg): + (If cell length was more than 50 μm and cell number was more than 5 in each visual field, it was deemed as CGC positive and was marked with “+”); CGC formation (Compound (I) 150 mg, macrolide (spiramycin) 300 mg): − (if cell length was not greater than 50 μm and cell number was within the range from 0 to 4 in each visual field, it was deemed as CGC negative and was marked with “−”)
